Eight compounds from PubChem BioAssay AID1259407 (Chemical Carcinogenesis Research Information System (CCRIS), 2018) can be followed below.

The structures appear in SMILES notation. Active and inactive are the calls of the source. No rule for the calls is given here.

The subject of the data set is CCRIS mutagenicity, Ames/micronucleus/aberration tests. Put plainly: CCRIS mutagenicity studies.
[1] abbreviates: Test System: AMES SALMONELLA TYPHIMURIUM, Strain/Indicator: TA98, Metabolic Activation: NONE, Method: PREINCUBATION
Setting [2] is: Test System: AMES SALMONELLA TYPHIMURIUM, Strain/Indicator: TA98, Metabolic Activation: RAT, LIVER, S-9, AROCLOR 1254, Method: PREINCUBATION
Where [3] appears, read: Test System: AMES SALMONELLA TYPHIMURIUM, Strain/Indicator: TA100, Metabolic Activation: NONE, Method: PREINCUBATION
[4] abbreviates: Test System: AMES SALMONELLA TYPHIMURIUM, Strain/Indicator: TA1535, Metabolic Activation: NONE, Method: PREINCUBATION
Setting [5] is: Test System: AMES SALMONELLA TYPHIMURIUM, Strain/Indicator: TA1537, Metabolic Activation: NONE, Method: PREINCUBATION
The mark [6] stands for this setting: Test System: AMES SALMONELLA TYPHIMURIUM, Strain/Indicator: TA98, Metabolic Activation: RAT, LIVER, S-9, AROCLOR 1254, Method: STANDARD PLATE.
The mark [7] stands for this setting: Test System: AMES SALMONELLA TYPHIMURIUM, Strain/Indicator: TA98, Metabolic Activation: NONE, Method: STANDARD PLATE.
[8] abbreviates: Test System: AMES SALMONELLA TYPHIMURIUM, Strain/Indicator: TA100, Metabolic Activation: NONE, Method: STANDARD PLATE.

Turning to `CC1CS1` (centres undefined), the mutagenic call is, setting by setting: (Test System: AMES SALMONELLA TYPHIMURIUM, Strain/Indicator: TA98, Metabolic Activation: HAMSTER, LIVER, S-9, AROCLOR 1254, Method: PREINCUBATION) “inactive; negative”; under setting [1], “inactive; negative”; under setting [2], “inactive; negative”; (Test System: AMES SALMONELLA TYPHIMURIUM, Strain/Indicator: TA100, Metabolic Activation: HAMSTER, LIVER, S-9, AROCLOR 1254, Method: PREINCUBATION) “inactive; negative”; under setting [3], “inactive; negative”; (Test System: AMES SALMONELLA TYPHIMURIUM, Strain/Indicator: TA100, Metabolic Activation: RAT, LIVER, S-9, AROCLOR 1254, Method: PREINCUBATION) “inactive; negative”. For the same compound, the mutagenic call is “inactive; negative” (Test System: AMES SALMONELLA TYPHIMURIUM, Strain/Indicator: TA1535, Metabolic Activation: HAMSTER, LIVER, S-9, AROCLOR 1254, Method: PREINCUBATION); “inactive; negative” under setting [4]; “inactive; negative” (Test System: AMES SALMONELLA TYPHIMURIUM, Strain/Indicator: TA1535, Metabolic Activation: RAT, LIVER, S-9, AROCLOR 1254, Method: PREINCUBATION); “inactive; negative” (Test System: AMES SALMONELLA TYPHIMURIUM, Strain/Indicator: TA1537, Metabolic Activation: HAMSTER, LIVER, S-9, AROCLOR 1254, Method: PREINCUBATION); “inactive; negative” under setting [5]; “inactive; negative” (Test System: AMES SALMONELLA TYPHIMURIUM, Strain/Indicator: TA1537, Metabolic Activation: RAT, LIVER, S-9, AROCLOR 1254, Method: PREINCUBATION). For the same compound, the mutagenic call is “inactive; negative” (Test System: AMES SALMONELLA TYPHIMURIUM, Strain/Indicator: TA1538, Metabolic Activation: HAMSTER, LIVER, S-9, AROCLOR 1254, Method: PREINCUBATION); “inactive; negative” (Test System: AMES SALMONELLA TYPHIMURIUM, Strain/Indicator: TA1538, Metabolic Activation: NONE, Method: PREINCUBATION); “inactive; negative” (Test System: AMES SALMONELLA TYPHIMURIUM, Strain/Indicator: TA1538, Metabolic Activation: RAT, LIVER, S-9, AROCLOR 1254, Method: PREINCUBATION); “active; positive. reevaluation of results: positive” (Test System: MOUSE LYMPHOMA, Strain/Indicator: L5178Y (TK+/TK-), Metabolic Activation: NONE, Method: SUSPENSION/PLATE); “active; equivocal (previous evaluation positive)” (Test System: Mouse lymphoma, Strain/Indicator: L5178Y (tk+/tk-), Metabolic Activation: Rat, Liver, S-9, Aroclor 1254, Method: Suspension/plate).
Take `CC1CNc2cc(O)c3ccc4ccccc4c3c21` (centres undefined): the mutagenic call is “active; positive” under setting [6] and “active; positive” (Test System: AMES SALMONELLA TYPHIMURIUM, Strain/Indicator: TA98, Metabolic Activation: RAT, LIVER, S-9, AROCLOR, Method: STANDARD PLATE).
For `Cn1c(N)nc2ccc(C#N)cc21`, the mutagenic call under setting [2] was “active; positive”.
On to `Nc1ccn(/C=C/C=O)c(=O)n1`, for which the mutagenic call (Test System: AMES SALMONELLA TYPHIMURIUM, Strain/Indicator: HISD3052, Metabolic Activation: NONE, Method: STANDARD PLATE) is “active; positive”.
As for `ONc1ccc(Sc2ccccc2)cc1`, the mutagenic call (Test System: AMES SALMONELLA TYPHIMURIUM, Strain/Indicator: TA98(1,8-DNP6), Metabolic Activation: NONE, Method: STANDARD PLATE) is “active; positive”; the mutagenic call (Test System: AMES SALMONELLA TYPHIMURIUM, Strain/Indicator: TA98(NR), Metabolic Activation: NONE, Method: STANDARD PLATE) is “active; positive”; the mutagenic call under setting [7] was “active; positive”.
In the case of `COc1ccc(C(=O)Nc2ccccc2)cc1[N+](=O)[O-]`, the mutagenic call (Test System: AMES SALMONELLA TYPHIMURIUM, Strain/Indicator: TA97, Metabolic Activation: HAMSTER, LIVER, S-9, AROCLOR 1254 (10%), Method: PREINCUBATION) was “active; positive”; the mutagenic call (Test System: AMES SALMONELLA TYPHIMURIUM, Strain/Indicator: TA97, Metabolic Activation: NONE, Method: PREINCUBATION) is “inactive; negative”; the mutagenic call (Test System: AMES SALMONELLA TYPHIMURIUM, Strain/Indicator: TA97, Metabolic Activation: RAT, LIVER, S-9, AROCLOR 1254 (10%), Method: PREINCUBATION) was “active; positive”; the mutagenic call (Test System: AMES SALMONELLA TYPHIMURIUM, Strain/Indicator: TA98, Metabolic Activation: HAMSTER, LIVER, S-9, AROCLOR 1254 (10%), Method: PREINCUBATION) is “active; positive”; the mutagenic call under setting [1] is “inactive; negative”; the mutagenic call (Test System: AMES SALMONELLA TYPHIMURIUM, Strain/Indicator: TA98, Metabolic Activation: RAT, LIVER, S-9, AROCLOR 1254 (10%), Method: PREINCUBATION) is “active; positive”. Moreover, the mutagenic call (Test System: AMES SALMONELLA TYPHIMURIUM, Strain/Indicator: TA100, Metabolic Activation: HAMSTER, LIVER, S-9, AROCLOR 1254 (10%), Method: PREINCUBATION) is “active; positive”; the mutagenic call under setting [3] was “active; positive”; the mutagenic call (Test System: AMES SALMONELLA TYPHIMURIUM, Strain/Indicator: TA100, Metabolic Activation: RAT, LIVER, S-9, AROCLOR 1254 (10%), Method: PREINCUBATION) is “active; positive”; the mutagenic call (Test System: AMES SALMONELLA TYPHIMURIUM, Strain/Indicator: TA1535, Metabolic Activation: HAMSTER, LIVER, S-9, AROCLOR 1254 (10%), Method: PREINCUBATION) is “inactive; negative”; the mutagenic call under setting [4] was “inactive; negative”; the mutagenic call (Test System: AMES SALMONELLA TYPHIMURIUM, Strain/Indicator: TA1535, Metabolic Activation: RAT, LIVER, S-9, AROCLOR 1254 (10%), Method: PREINCUBATION) was “inactive; negative”. The mutagenic call is “active; positive” (Test System: AMES SALMONELLA TYPHIMURIUM, Strain/Indicator: TA1537, Metabolic Activation: HAMSTER, LIVER, S-9, AROCLOR 1254 (10%), Method: PREINCUBATION); “inactive; negative” under setting [5]; “active; positive” (Test System: AMES SALMONELLA TYPHIMURIUM, Strain/Indicator: TA1537, Metabolic Activation: RAT, LIVER, S-9, AROCLOR 1254 (10%), Method: PREINCUBATION).
Consider `N=C(N)c1ccc(-c2cc3ccc(C(=N)N)cc3s2)cc1`, for which the mutagenic call by setting is: under setting [7], “inactive; negative”; (Test System: AMES SALMONELLA TYPHIMURIUM, Strain/Indicator: TA98, Metabolic Activation: RAT, LIVER, S-9, PHENOBARBITAL, Method: STANDARD PLATE) “inactive; negative”; under setting [8], “inactive; negative”; (Test System: AMES SALMONELLA TYPHIMURIUM, Strain/Indicator: TA100, Metabolic Activation: RAT, LIVER, S-9, PHENOBARBITAL, Method: STANDARD PLATE) “inactive; negative”.
In the case of `ONc1ncnc2c1ncn2Cc1ccccc1`, the mutagenic call (Test System: AMES SALMONELLA TYPHIMURIUM, Strain/Indicator: TA97, Metabolic Activation: NONE, Method: STANDARD PLATE) was “active; positive”; the mutagenic call (Test System: AMES SALMONELLA TYPHIMURIUM, Strain/Indicator: TA97, Metabolic Activation: RAT, LIVER, S-9, AROCLOR 1254, Method: STANDARD PLATE) is “active; positive”; the mutagenic call under setting [7] was “inactive; negative”; the mutagenic call under setting [6] was “active; positive”; the mutagenic call under setting [8] was “active; positive”; the mutagenic call (Test System: AMES SALMONELLA TYPHIMURIUM, Strain/Indicator: TA100, Metabolic Activation: RAT, LIVER, S-9, AROCLOR 1254, Method: STANDARD PLATE) is “active; positive”.
